Converted amounts (≈) assume the structure as drawn. Read-outs that look alike come from different tables or passages of the source.
Assays:
[1] = tested on: NTBC187 (K. pneumonia strain expressing SHV-OSBL, NDM-1 and OXA-48); test: Meropenem MIC, broth micro-dilution, NTBC187; format: cell-based; conditions: Klebsiella pneumoniae, read-out: MIC mero
Experimental: (§1) Experiments were carried out using the ‘broth micro-dilution method’ according to the protocols M07-A8 established by the Clinical Laboratory Standards Institute (CLSI). Serial dilutions of meropenem (mero) were prepared in 96-well plates in cation-adjusted Mueller-Hinton broth (CAMHB); the concentration range was defined from 0.03 mg/L to 512 mg/L. The compounds (the compound of Example 2, above, and/or WCK4234) were added at the concentration indicated in the table below. A bacterial inoculum of each strain (clinical isolates) was adjusted to a 0.5 McFarland turbidity standard in physiologic serum (0.9% NaCl), then diluted 1:100 in CAMHB and added to each well to give a final bacterial cell number of 5×10^5 CFU/well. After incubation for 18-20 hours in a heating chamber at 37° C., the growth inhibition was evaluated by the absence of any bacterial development.
(§2) NTBC019 (K. pneumonia strain expressing NDM-1, CTX-M-15 and OXA-181); NTBC185 (K. pneumonia strain expressing SHV-OSBL, TEM-OSBL, NDM-1 and OXA-48); NTBC186 (K. pneumonia strain expressing ACT-TYPE, VIM-1 and OXA-48); NTBC187 (K. pneumonia strain expressing SHV-OSBL, NDM-1 and OXA-48); and NTBC188 (K. pneumonia strain expressing NDM-1 and KPC-2).

[2] = tested on: NTBC024 (K. pneumoniae strain expressing VIM-19, TEM-1 and CTX-M-3); test: Meropenem MIC, broth micro-dilution, NTBC024; format: cell-based; conditions: Klebsiella pneumoniae, read-out: MIC mero
Experimental: as §1, with “The experiments were” for “Experiments were”, “of the β-lactam antibiotic (Meropenem)” for “of meropenem (mero)”, “compounds” for “compounds (the compound of Example 2, above, and/or WCK4234)”, “at a constant” for “at the”, “concentration of 8 μg/mL.” for “concentration indicated in the table below.”
(§3) Compounds of the invention were tested at a constant concentration of 8 μg/mL. […]
(§4) Experiments were carried out using the ‘broth micro-dilution method’ according to the protocols M07-A8 established by the Clinical Laboratory Standards Institute (CLSI). […] After incubation for 18-20 hours in a heating chamber at 37° C., the growth inhibition was evaluated by the absence of any bacterial development. […]

[3] = tested on: NTBC055 (E. Coli strain expressing VIM-1); test: Meropenem MIC, broth micro-dilution, NTBC055; format: cell-based; conditions: Escherichia coli, read-out: MIC mero
Experimental: as §1, with “The experiments were” for “Experiments were”, “of the β-lactam antibiotic (Meropenem)” for “of meropenem (mero)”, “compounds” for “compounds (the compound of Example 2, above, and/or WCK4234)”, “at a constant” for “at the”, “concentration of 8 μg/mL.” for “concentration indicated in the table below.”
as §3, §4

K. pneumoniae NTBC104 = test: In vivo efficacy, mouse thigh infection with K. pneumoniae NTBC104; conditions: meropenem at 30 mg/kg alone, 9 hours post infection
Experimental: Mice were infected in the thigh with K. pneumoniae NTBC104. […] The MIC of meropenem in the presence of 8 ug/mL of the compound of Example 2 is 4 ug/mL.
At the end of the experiment (9 hours post infection) the animals were sacrificed and the numbers of colony forming units (CFUs) were measured in order to quantify bacterial load (extent of the infection).

[4] = tested on: NTBC093 (E. cloacae strain expressing KPC-2 and TEM-1); test: Meropenem MIC, broth micro-dilution, NTBC093; format: cell-based; conditions: Enterobacter cloacae, read-out: MIC mero
Experimental: as §1
(§5) NTBC091-1 (E. coli strain expressing KPC-2 and TEM-1); NTBC093 (E. cloacae strain expressing KPC-2 and TEM-1); NTBC096-1 (K. pneumonia strain expressing OXA-181 and SHV-11); NTBC099 (K. pneumonia strain expressing KPC-3, SHV-11 and TEM-1); and NTBC189 (K. pneumonia strain expressing TEM-OSBL, CTX-M-14 and OXA-48).

[5] = tested on: NTBC019 (K. pneumonia strain expressing NDM-1, CTX-M-15 and OXA-181); test: Meropenem MIC, broth micro-dilution, NTBC019; format: cell-based; conditions: Klebsiella pneumoniae
Experimental: as §1, §2
(§6) Experiments were conducted as described above. Compounds (the compounds of Examples 2 and 26) were tested at 8 μg/mL. […] MIC values were determined for […]

[6] = tested on: NTBC099 (K. pneumonia strain expressing KPC-3, SHV-11 and TEM-1); test: Meropenem MIC, broth micro-dilution, NTBC099; format: cell-based; conditions: Klebsiella pneumoniae, read-out: MIC mero
Experimental: as §1, §5

[7] = tested on: NTBC035-2 (K. pneumoniae strain expressing NDM-1, CMY-4 and SHV-11); test: Meropenem MIC, broth micro-dilution, NTBC035-2; format: cell-based; conditions: Klebsiella pneumoniae, read-out: MIC mero
Experimental: as §1, with “The experiments were” for “Experiments were”, “of the β-lactam antibiotic (Meropenem)” for “of meropenem (mero)”, “compounds” for “compounds (the compound of Example 2, above, and/or WCK4234)”, “at a constant” for “at the”, “concentration of 8 μg/mL.” for “concentration indicated in the table below.”
as §3, §4

[8] = tested on: NTBC186 (K. pneumonia strain expressing ACT-TYPE, VIM-1 and OXA-48); test: Meropenem MIC, broth micro-dilution, NTBC186; format: cell-based; conditions: Klebsiella pneumoniae, read-out: MIC mero
Experimental: as §1, §2

[9] = tested on: NTBC188 (K. pneumonia strain expressing NDM-1 and KPC-2); test: Meropenem MIC, broth micro-dilution, NTBC188; format: cell-based; conditions: Klebsiella pneumoniae
Experimental: as §1, §2, §6

[10] = tested on: NTBC091-1 (E. coli strain expressing KPC-2 and TEM-1); test: Meropenem MIC, broth micro-dilution, NTBC091-1; format: cell-based; conditions: Escherichia coli, read-out: MIC mero
Experimental: as §1, §5

Which MIC [1] does the source give for `C[C@@H](O)[C@H]1C(=O)N2C(C(=O)O)=C(S[C@@H]3CN[C@H](C(=O)N(C)C)C3)[C@H](C)[C@H]12` [Meropenem] here?
Its MIC is 128 µg/mL (≈ 334 µM).

What about the MIC [2] of the same compound?
Its MIC is 16 µg/mL.

And the MIC [3]?
Its MIC is 4 µg/mL.

And the “bacterial load (CFUs)” value (K. pneumoniae NTBC104)?
Its value is “reduced bacterial load slightly”.

What about the MIC [4] of the same compound?
The MIC was 128 µg/mL (≈ 334 µM).

What about the MIC ([5]; read-out: MIC mero) of the same compound?
The MIC was 64 µg/mL (≈ 167 µM).

What about the MIC ([5]; read-out: MIC, NTBC19) of the same compound?
The MIC was 8 to 512 µg/mL (≈ 20.9 to 1340 µM).

And the MIC [6]?
Its MIC is 128 µg/mL (≈ 334 µM).

And the MIC [7]?
Its MIC is 64 µg/mL.

What about the MIC [8] of the same compound?
The MIC was 16 µg/mL (≈ 41.7 µM).

What about the MIC ([9]; read-out: MIC mero) of the same compound?
Its MIC is 32 µg/mL (≈ 83.4 µM).

What about the MIC ([9]; read-out: MIC, NTBC188) of the same compound?
The MIC was 8 to 512 µg/mL (≈ 20.9 to 1340 µM).

And the MIC [10]?
The MIC was 4 µg/mL (≈ 10.4 µM).

Source: US11299467B2 (Antabio SAS, priority 2017, dated 2022)
